The test system of test [1] is UW-228-2 cell line. The test is described as follows: MTT proliferation assay, UW-228-2 medulloblastoma cells. The class given is cell-based, human. The following applies: 72 hours; for proliferation of cultured cells, monotherapy: nine concentrations between 10^-14 and 10^-6 M, MTT. The method, then:
Human medulloblastoma cell line, Daoy was purchased from ATCCC, UW-228 was obtained from the courtesy of Professor Silber (University of Washington, Seattle, Wash., USA).
Daoy and UW-228-2 cell lines were maintained in culture medium (each 500 ml Minimum Essential Medium Eagle, Alpha Modification (M8042, Sigma, St Louis, USA) with 50 ml FCS (Gibco), 40 mg Gentamicin (Sandoz), 5 ml sodium-pyruvate (S8636, Sigma, St Louis, USA), 5 ml non-essential-amino acid solution (M7145, Sigma, St Louis, USA), 10 ml L-glutamin (Sigma, St Louis, USA) at 37° C. in humified 5% CO2.
In each well 3×10^3 Daoy or UW-228-2 cells were seeded in 96-well plates (Sarstedt), solved in 100 µl of its own medium with 10% FCS. 24 hours after seeding, cells were treated for 72 hours by drugs solved in further 100 μl medium. First, both cell lines were treated by (−)-BPAP and (−)-deprenil in monotherapy to determine its dose-effect curves in concentration of 10^−6, 10^−7, […], 10^−9, 10^−10, 10^−11, 10^−12, 10^−13 and 10^−14 M. In combined treatment 10^−3, 3.3×10^−4, […] and 3.7×10^−5 M of temozolomide (Schering Plough, USA) or 0.04, 0.2, 1, 5 μM of Cisplatin (Ebewe Pharma, Austria) or 0.04, 0.2, 1, 5 μM of etoposide (Ebewe Pharma, Austria) or 10^−7, 10^−6, 10^−5 and 10^−4 μM (UW228-2) or 0.001, 0.005, 0.025 and 0.125 μM (Daoy) of Vincristin (Richter Gedeon, Hungary) were applied in monotherapy or combined with 10^−13 or 10^−8 M of (−)-BPAP or (−)-deprenil.
Cell proliferation was evaluated by MTT (3-(4,5-Dimethylthiazol-2-yl)-2,5-diphenyltetrazolium bromide) assay (M5655, Sigma) after 72-hour treatment by the method described in manufacturer's protocol.

For test [2], the system named is male Wistar rats (Charles River). The test is described as follows: Longevity study: survival of rats under lifelong treatment. It counts as in vivo, rat. As to conditions: for month of age in which the first animal died: saline: 9th month; for lifespan versus saline-treated peers: both doses of each substance (FIGS. 5-8), Kaplan-Meier. The method, then: Experiments were carried out on male Wistar rats (Charles River) weighing 250-350 g received from the breeding colony of Semmelweis University. The animals were kept in a 12-hour light-dark cycle and under condition of controlled temperature (22±2° C.) and relative humidity (55±5%). Room temperature and relative humidity was checked daily. The rats were maintained on standard laboratory chow and tap water ad libitum. All procedures conformed to the European Convention for the protection of vertebrate animals used for experimental and other scientific purposes. The study was approved by the Animal Ethics Committee of Semmelweis University, Budapest (permission number: 1810/003/2004)
(§1) The longevity study was performed on 200 male rats received from the breeding colony of the Semmelweis University. The rats were born at the end of February of 2010. After 2-month acclimation period the rats were divided randomly into 5 even groups. The longevity study started at the beginning of May 2010. Animals were observed until their natural deaths. The data in this study represent the changes observed until Oct. 31, 2012, since in the saline-treated group the last animal died on Oct. 31, 2012. As will be shown later a few rats in the enhancer-treated groups were still alive on Nov. 1, 2012.
(§2) During the longevity study 5 rats were housed together in polycarbonate cages (height: 18 cm; wide: 42 cm; length: 44 cm) with a stainless steel on the top. Cage bedding was renewed 3 times a week (Monday, Wednesday and Friday). Bodyweight was measured once every month. The treatment started at the end of the second month of their age. […] To avoid the mixing of the groups and individuals, saline-treated rats were signed blue from 1 to 40; D-treated rats were signed green from 1 to 80 (1-40: rats treated with 0.1 mg/kg and 41-80: rats treated with 0.001 mg/kg); B-treated rats were signed black from 1 to 80 (1-40: rats treated with 0.05 mg/kg and 41-80: rats treated with 0.0001 mg/kg).
(§3) Significance in the performance between the groups in the shuttle box was evaluated by multi-factor analysis of variance (ANOVA). Significance regarding the span of time from tumor manifestation until death in rats and regarding aging related changes in bodyweight treated chronically with the enhancer substances was analyzed by One-way ANOVA. Statistical analysis of survival rate and tumor manifestation was performed by the Kaplan-Meier method.

Test [3] relates to enhancer-sensitive neurons of isolated rat brain stem. As to conditions: optimal concentration for specific enhancer effect, 3-min collection period; review Knoll, 2005; cited from earlier work.
In test [4] the test system is lung carcinoma. The test is described as follows: Longevity study on FVB/N mice: spontaneous lung carcinoma at autopsy. The following applies: for Number of detected lung carcinoma: 18 months, saline 3 of 4. The class given is in vivo. The protocol:
Five groups of mice are treated daily from sexual maturity with two different doses of
(−)-deprenyl and (−)-BPAP, respectively.
Group 2: BPAP low dose: 0.0001 mg/kg (−)-BPAP
Group 3: BPAP high dose: 0.05 mg/kg (−)-BPAP
A total of 172 mice entered the experiments. Body weight is measured bimonthly.
For monitoring, we planned to sacrifice mice from each group at 6-month, 1-year, 1.5-year and 2-year time-points; the rest of the animals are kept until spontaneous death.
The results are shown in Table 4 and on FIGS. 19 and 20. Significance levels were calculated with two-sided Chi-square test.

The test system of test [5] is fibromyxosarcoma. The test is described as follows: Longevity study: manifestation of subcutaneous fibromyxosarcoma (TMS effect). The class given is in vivo, Wistar rats. The following applies: for month in which the last animal manifested the tumor / rats that manifested the tumor to the end of the 32nd month of age / rats that manifested the tumor when the group completed the 30th month of life / age at which the first animal manifested the tumor: N=40; for rats that manifested the tumor to the end of the 32nd month of age / rats that manifested the tumor when the group completed the 30th month of life: saline 20 rats; for age at which the first animal manifested the tumor: saline: 11th month; for span of time from tumor manifestation until death, versus saline: chronic treatment, One-way ANOVA (FIG. 13). The protocol:
as §1, §2
We carefully observed the appearance of the subcutaneous tumor and followed the development of the tumor until death. Histological analysis was performed post mortem on several rats taken from each group as examples.
The subcutaneous tumors developed in the rats were measured by the two largest diameters. After sacrificing the animals, the tumors were removed, photographs were taken. Tissues were fixed immediately after removal in 10% neutral formalin (in PBS, pH7.0) for 24 hours at room temperature, dehydrated and embedded in paraffin. 3-4 micrometer thick sections were cut and stained by hematoxylin and eosin (HE) as a routine.
as §3

With `CCCN[C@H](CCC)Cc1cc2ccccc2o1` [(−)-BPAP, (R)-1-(benzofuran-2-yl)-2-propylamino pentane], in test [1] (10^-13 or 10^-8 M combined with temozolomide, Cisplatin, etoposide or Vincristin), the “effectiveness of tumor-cell proliferation inhibiting agents in combination” value is listed as “did not change the effectiveness”. Also, the “proliferation of cultured cells, monotherapy” value is reported as “did not inhibit the proliferation” in test [1] and “In none of the applied concentrations” in test [1] (listed as BPAP). Moreover, the “month of age in which the first animal died” value in test [2] (0.0001 mg/kg s.c. 3 times a week, N=40) came to 16 month; in test [2] (0.05 mg/kg s.c. 3 times a week, N=40), 14 month. For the same molecule, the “rats remaining alive to the end of the 32nd month of age” value in test [2] (0.0001 mg/kg, N=40, P<0.05 vs saline) was “one and One”. Besides, the “lifespan versus saline-treated peers” value in test [2] was “significantly longer”. In test [3], the “released amount of labeled transmitter ([3H]-norepinephrine, [3H]-dopamine or [3H]-serotonin) versus absence of substance” value was “significantly higher”. The “Number of detected lung carcinoma” value in test [4] (0.0001 mg/kg daily, 4 dissected mice) turned out to be 0; in test [4] (0.05 mg/kg daily, 4 dissected mice) it was 1. The “manifestation of lung carcinoma” value in test [4] (specific enhancer (extremely low) dose, 18 months daily treatment) was “completely prevented”. The “tumor manifestation suppressing (TMS) effect versus saline” value in test [5] (0.0001 mg/kg, Kaplan-Meier, P<0.001 (FIG. 12)) is “significantly decreased”; in test [5] (0.0001 mg/kg, Kaplan-Meier, P<0.001 (FIG. 12), listed as BPAP), “suppressed the manifestation of the fibromyxosarcoma significantly”; in test [5] (0.05 mg/kg, Kaplan-Meier, P<0.001 (FIG. 11)), “significantly decreased”; in test [5] (0.05 mg/kg, Kaplan-Meier, P<0.001 (FIG. 11), listed as BPAP), “suppressed the manifestation of the fibromyxosarcoma significantly”. In addition, the entries for the “month in which the last animal manifested the tumor” value in test [5] (0.0001 mg/kg) and in test [5] (0.05 mg/kg) were 31 month and 29 month, respectively. Also, the “rats that manifested the tumor to the end of the 32nd month of age” value is listed as 8 rats in test [5] (0.0001 mg/kg) and 7 rats in test [5] (0.05 mg/kg). Besides, the “rats that manifested the tumor when the group completed the 30th month of life” value is listed as 8 rats in test [5] (0.0001 mg/kg, P<0.001) and 7 rats in test [5] (0.05 mg/kg, P<0.001). Further, the “age at which the first animal manifested the tumor” value came out at 20 month in test [5] (0.0001 mg/kg); 25 month in test [5] (0.0001 mg/kg, listed as BPAP); 13 month in test [5] (0.05 mg/kg). Also, the “span of time from tumor manifestation until death, versus saline” value in test [5] is “no significant difference”.

For the molecule `C#CCN(C)[C@H](C)Cc1ccccc1` [(−)-Deprenyl, (R)—N-methyl-N-(1-phenylpropan-2-yl)prop-2-yn-1-amine], the “proliferation of cultured cells, monotherapy” value in test [1] (listed as (−)-deprenyl) is “did not inhibit the proliferation”; in test [1] (listed as Deprenyl), “In none of the applied concentrations”. Moreover, the “month of age in which the first animal died” value in test [2] (0.001 mg/kg s.c. 3 times a week, N=40) was 13 month; in test [2] (0.1 mg/kg s.c. 3 times a week from 2 months of age, N=40), 11 month. Further, the “month of age in which the last animal died” value in test [2] (0.001 mg/kg, N=40) amounted to 32 month. Besides, the “rats remaining alive to the end of the 32nd month of age” value in test [2] (0.001 mg/kg, N=40, P>0.05 vs saline) is “none”. The “lifespan versus saline-treated peers” value in test [2] was “did not prolong the lifespan of rats significantly”. In addition, the “released amount of labeled transmitter ([3H]-norepinephrine, [3H]-dopamine or [3H]-serotonin) versus absence of substance” value in test [3] is reported as “significantly higher”. Also, the “Number of detected lung carcinoma” value worked out at 0 in test [4] (0.001 mg/kg daily, 2 dissected mice) and 1 in test [4] (0.1 mg/kg daily, 4 dissected mice). For the same molecule, the “tumor manifestation suppressing (TMS) effect versus saline” value in test [5] (0.001 mg/kg, Kaplan-Meier (FIG. 10)) was “not significant”; in test [5] (0.1 mg/kg, Kaplan-Meier, P<0.01 (FIG. 9), listed as (−)-deprenyl) it was “significantly decreased”; in test [5] (0.1 mg/kg, Kaplan-Meier, P<0.01 (FIG. 9), listed as Deprenyl), “suppressed the manifestation of the fibromyxosarcoma significantly”. Moreover, the entries for the “month in which the last animal manifested the tumor” value in test [5] (0.001 mg/kg) and in test [5] (0.1 mg/kg) were 29 month and 32 month, respectively. For the same molecule, the “rats that manifested the tumor to the end of the 32nd month of age” value in test [5] (0.001 mg/kg) was determined as 15 rats; in test [5] (0.1 mg/kg), 11 rats. Besides, the results for the “age at which the first animal manifested the tumor” value in test [5] (0.001 mg/kg) and in test [5] (0.1 mg/kg s.c. 3 times a week) were 12 month and 16 month, respectively. Also, the “rats that manifested the tumor when the group completed the 30th month of life” value in test [5] (0.1 mg/kg, P<0.01) was 11 rats. The “span of time from tumor manifestation until death, versus saline” value in test [5] was “no significant difference”.

Values taken from patent publication US10258598B2, “Compounds for use in the prevention or treatment of cancer” ([…], priority 2014, dated 2019).
